Data reported in the Kinase Knowledgebase extract (Sharma et al. 2016).

Biological target: MAPK14 (human) (UniProt Q16539)
Assay: Assesment of MAPK14 Kinase Activity

Sequence of MAPK14 (human) (Q16539 whole entry, looked up): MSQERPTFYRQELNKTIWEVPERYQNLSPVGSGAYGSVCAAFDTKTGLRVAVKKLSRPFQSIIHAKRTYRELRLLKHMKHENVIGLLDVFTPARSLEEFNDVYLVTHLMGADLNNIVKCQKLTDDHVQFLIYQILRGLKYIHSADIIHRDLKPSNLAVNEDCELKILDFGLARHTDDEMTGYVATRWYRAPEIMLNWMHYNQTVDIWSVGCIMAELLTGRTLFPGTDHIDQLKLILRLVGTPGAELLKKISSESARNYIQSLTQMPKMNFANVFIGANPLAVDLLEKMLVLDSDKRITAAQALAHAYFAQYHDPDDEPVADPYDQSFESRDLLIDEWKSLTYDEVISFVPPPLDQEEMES

CC(C)Cn1ncc2cc(Oc3ccc(F)cc3F)c(C(=O)N[C@H]3CCCCNC3=O)cc21
EC50: ≤ 10 µM

CC(C)(O)Cn1ncc2cc(Oc3ccc(F)cc3F)c(C(=O)N[C@H]3CCNC3=O)cc21
EC50: ≤ 10 µM

CC(C)Cn1ncc2cc(Oc3ccc(F)cc3F)c(C(=O)N[C@H]3CCN(C)C3=O)cc21
EC50: ≤ 10 µM

CC(C)Cn1ncc2cc(Oc3ccc(F)cc3F)c(C(=O)N[C@H]3CCCNC3=O)cc21
EC50: ≤ 10 µM

CC(C)(F)Cn1ncc2cc(Oc3ccc(F)cc3F)c(C(=O)N[C@H]3CCCNC3=O)cc21
EC50: ≤ 10 µM

CC(C)Cn1ncc2cc(Oc3ccc(F)cc3F)c(C(=O)N[C@H]3CCNC3=O)cc21
EC50: ≤ 10 µM

CC(C)Cn1ncc2cc(Oc3ccc(F)cc3F)c(C(=O)N[C@H]3CCCCN(CCO)C3=O)cc21
EC50: ≤ 10 µM

CC(C)Cn1ncc2cc(Oc3ccc(F)cc3F)c(C(=O)N[C@H]3CCCN(C)C3=O)cc21
EC50: ≤ 10 µM

CC(C)Cn1ncc2cc(Oc3ccc(F)cc3F)c(C(=O)N[C@H]3CCN(CCO)C3=O)cc21
EC50: ≤ 10 µM

CC(C)Cn1ncc2cc(Oc3ccc(F)cc3F)c(C(=O)N[C@H]3CCCN(CCO)C3=O)cc21
EC50: ≤ 10 µM

CC(C)(F)Cn1ncc2cc(Oc3ccc(F)cc3F)c(C(=O)ON3C(=O)CCC3=O)cc21
EC50: ≤ 10 µM

CC(C)(F)Cn1ncc2cc(Oc3ccc(F)cc3F)c(C(=O)N[C@H]3CCNC3=O)cc21
EC50: ≤ 10 µM

CC(C)Cn1ncc2cc(Oc3ccc(F)cc3F)c(C(=O)N[C@H]3CCCCN(C)C3=O)cc21
EC50: ≤ 10 µM

CC(C)(F)Cn1ncc2cc(Oc3ccc(F)cc3F)c(C(=O)N[C@H]3CCCCNC3=O)cc21
EC50: ≤ 10 µM

CC(C)Cn1ncc2cc(Oc3ccc(F)cc3F)c(C(=O)Nc3ccc[nH]c3=O)cc21
EC50: ≤ 10 µM
